Assays:
[1] = clinical; conditions: human, in vivo, iv, 0.4 ug/kg
Method: Upon entering the scanner, an […] was started in an antecubital vein and subjects were randomly assigned to receive either placebo (saline) or RG1068 (synthetic human secretin). Drug was administered at 0.4 μg/kg via the […] over 1 min. A 3-way stop-clock device with a heparinized line was used to collect blood samples immediately preceding the infusion of RG1068 or placebo and at variable points post infusion for drug pharmacokinetic analysis. Vital signs were monitored for at least 20 minutes after infusion. Prior to the infusion, subjects completed three affective challenge paradigms which had been explained to them before entering the scanner. Subjects completed the same paradigms one hour following infusion with either placebo or RG1068 for pre/post comparison (FIG. 1).
Blood samples were taken over the first 60 minutes post dosing, and samples from subjects receiving RG1068 were used to quantify secretin blood levels. […] Both the Cmax and the elimination rate are consistent with values observed after similar secretin infusions in adults (Christ et al., 1988). Whole brain T2 measures were obtained to verify that no global metabolic effect occurred with the administration of secretin.

[2] = system: amygdala; conditions: healthy subjects; cited from earlier work
[3] = system: amygdala; conditions: depressed patients, versus baseline evaluation; cited from earlier work

Structure (SMILES): CC(C)C[C@H](NC(=O)CNC(=O)[C@H](CCC(N)=O)NC(=O)[C@H](CC(C)C)NC(=O)[C@H](CC(C)C)NC(=O)[C@H](CCCNC(=N)N)NC(=O)[C@H](CCC(N)=O)NC(=O)[C@H](CC(C)C)NC(=O)[C@H](CCCNC(=N)N)NC(=O)[C@H](C)NC(=O)CNC(=O)[C@H](CCC(=O)O)NC(=O)[C@H](CCCNC(=N)N)NC(=O)[C@H](CC(C)C)NC(=O)[C@H](CCCNC(=N)N)NC(=O)[C@H](CO)NC(=O)[C@H](CC(C)C)NC(=O)[C@H](CCC(=O)O)NC(=O)[C@H](CO)NC(=O)[C@@H](NC(=O)[C@H](Cc1ccccc1)NC(=O)[C@@H](NC(=O)CNC(=O)[C@H](CC(=O)O)NC(=O)[C@H](CO)NC(=O)[C@@H](N)Cc1c[nH]cn1)[C@@H](C)O)[C@@H](C)O)C(=O)N[C@H](C(N)=O)C(C)C [Secretin, secretin]
- Cmax [1]: 5.1 ng/mL
- half-life [1]: 3.7 min

Structure (SMILES): C[C@H](N)Cc1ccccc1 [dextroamphetamine]
- amygdalar responsivity to facial affect [2]: increased amygdalar responsivity

Structure (SMILES): COc1ccc(C(CN(C)C)C2(O)CCCCC2)cc1 (stereo not shown) [venlafaxine]
- amygdalar activation to positive stimuli after treatment [3]: significant increase in activation

Reference: patent US8524665B2, “Use of secretin in treatments of disorders associated with the amygdala” (The McLean Hospital Corporation, priority 2003, dated 2013)
